Measurements: EP2931723B1, “NEW BICYCLIC COMPOUNDS AND THEIR USE AS ANTIBACTERIAL AGENTS AND -LACTAMASE INHIBITORS” (Fedora Pharmaceuticals Inc., priority 2012, dated 2014)

Legend:
Assay in all cases: MIC, antibacterial and synergistic activity
Type in all cases: cell-based
E. coli JMI 11103 = system: E. coli JMI 11103
E. coli ATCC 25922 = E. coli ATCC 25922 (Wt)
K. pneumo JMI 2681 = K. pneumo JMI 2681 (Oxa-48 (Cpase))
E. coli JMI 10770 [1] = conditions: Escherichia coli, JMI10770; E. coli JMI 10770 (CTX-M15 (Hyper ESBL)); substance alone
E. coli JMI 10770 [2] = conditions: E. coli JMI 10770 (CTX-M15 (Hyper ESBL))
Protocol: (§1) In the Tables 10 - 12, compounds herein disclosed were tested in combination with various antibiotics against metallo β-lactamase producing bacteria. Table 3: Synergy of the inhibitor Ex. 1 (4 µg/mL) in combination with antibiotics

E. coli JMI 10768 [3] = conditions: E. coli JMI 10768 (CTX-M15 (Weak ESBL))
Protocol: as §1

K. pneumo JMI 2699 = K. pneumo JMI 2699 (VIM-1, CTX-M3)
How it was run: (§2)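 Here the inhibitor, at a set 4 µg/mL, accompanies each antibiotic. MIC determination used MBL-positive bacteria.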

K.pneumo JMI 4109 [4] = conditions: K.pneumo JMI 4109 (SHV-1, SHV-12)
How it was run: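 Antibacterial synergy was assessed by pairing each inhibitor compound, at a constant concentration of 4 µg/mL, with β-lactam antibiotics. The combinations were run against bacterial strains that produce β-lactamases, and the readout was the minimum inhibitory concentration of the antibiotic in the presence of the inhibitor.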

E. coli JMI 10767 [5] = conditions: E. coli JMI 10767 (Wt)
Protocol: as §1

K. pneumo JMI 4088 [6] = conditions: K. pneumo JMI 4088 (KPC-3 (Cpase))
How it was run: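 The compound was tested for synergy by combining it with antibiotics and measuring minimum inhibitory concentrations against β-lactamase producing bacteria. The inhibitor was present at a fixed concentration of 4 µg/mL together with the partner antibiotic, and MIC values were recorded.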

E. coli JMI 2665 = system: E. coli JMI 2665
Protocol: as §1

K. pneumo JMI 2674 [7] = conditions: K. pneumo JMI 2674 (CTX-M15 (ESBL))
How it was run: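 Antibacterial activity was assessed as minimum inhibitory concentrations against a β-lactamase-producing bacterial strain. Each test inhibitor was combined with an antibiotic, with the inhibitor held at a fixed 4 µg/mL, to determine whether it acted synergistically and restored the antibiotic's effect against the resistant organism.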

E. coli JMI 2671 = system: E. coli JMI 2671
How it was run: as §2

P. aerug JMI 2686 = P. aerug JMI 2686 (KPC-2 (Cpase)); substance alone
E. coli JMI 10767 [8] = conditions: E. coli JMI 10767 (Wt); remark: listed apart in the source
K. pneumo JMI 4088 [9] = conditions: K. pneumo JMI 4088 (KPC-3 (Cpase)); substance alone
P. aerug JMI 149 = P. aerug JMI 149 (Bla+++D+)
K.pneumo JMI 4109 [10] = conditions: K.pneumo JMI 4109 (SHV-1, SHV-12); substance alone
K. pneumo JMI 2673 = K. pneumo JMI 2673 (CTX-M14 (ESBL)); substance alone
K. pneumo JMI 2674 [11] = conditions: K. pneumo JMI 2674 (CTX-M15 (ESBL)); substance alone
K. pneumo JMI 4106 = K. pneumo JMI 4106 (KPC-3, TEM-1, SHV-12, SHV-141)
E. cloacae JMI 36 = E. cloacae JMI 36 (P99)
E. coli JMI 10768 [12] = conditions: E. coli JMI 10768 (CTX-M15 (Weak ESBL)); Meropenem + inhibitor at 4 µg/mL
[13] = Aztreonam + inhibitor at 4 µg/mL
[14] = Ceftazidime + inhibitor at 4 µg/mL
[15] = Meropenem + inhibitor at 4 µg/mL

## NCCONC(=O)[C@@H]1CC[C@@H]2CN1C(=O)N2OS(=O)(=O)O [Ex. 3, (2S,5R)-N-(2-Aminoethoxy)-7-oxo-6-(sulfooxy)-1,6-diazabicyclo[3.2.1]octane-2-carboxamide]
E. coli JMI 11103; E. coli JMI 11103 (CTX-M15 (Intermediate ESBL)), Aztreonam + inhibitor at 4 µg/mL
  MIC Aztreonam + inhibitor: 0.5 µg/mL
E. coli JMI 11103; E. coli JMI 11103 (CTX-M15 (Intermediate ESBL)), Ceftazidime + inhibitor at 4 µg/mL
  MIC Ceftazidime + inhibitor: 0.5 µg/mL
E. coli JMI 11103; E. coli JMI 11103 (CTX-M15 (Intermediate ESBL)), Meropenem + inhibitor at 4 µg/mL
  MIC Meropenem + inhibitor: 0.062 µg/mL
E. coli JMI 11103; Escherichia coli, JMI11103, E. coli JMI 11103 (CTX-M15 (Intermediate ESBL)), substance alone
  MIC: 4 µg/mL
E. coli ATCC 25922; [13]
  MIC Aztreonam + inhibitor: ≤0.062 µg/mL
E. coli ATCC 25922; [14]
  MIC Ceftazidime + inhibitor: ≤0.25 µg/mL
E. coli ATCC 25922; [15]
  MIC Meropenem + inhibitor: ≤0.0312 µg/mL
E. coli ATCC 25922; Escherichia coli, ATCC25922, substance alone
  MIC: 2 µg/mL
K. pneumo JMI 2681; [13]
  MIC Aztreonam + inhibitor: 1 µg/mL
K. pneumo JMI 2681; [14]
  MIC Ceftazidime + inhibitor: ≤0.25 µg/mL
K. pneumo JMI 2681; [15]
  MIC Meropenem + inhibitor: 0.5 µg/mL
K. pneumo JMI 2681; substance alone, read-out: MIC
  MIC: > 16 µg/mL
E. coli JMI 10770 [1]
  MIC: > 16 µg/mL
E. coli JMI 10770 [2]; [13]
  MIC Aztreonam + inhibitor: 8 µg/mL
E. coli JMI 10770 [2]; [14]
  MIC Ceftazidime + inhibitor: 2 µg/mL
E. coli JMI 10770 [2]; [15]
  MIC Meropenem + inhibitor: 0.062 µg/mL
E. coli JMI 10768 [3]; [13]
  MIC Aztreonam + inhibitor: ≤0.062 µg/mL
E. coli JMI 10768 [3]; [14]
  MIC Ceftazidime + inhibitor: ≤0.25 µg/mL
E. coli JMI 10768 [3]; Escherichia coli, JMI10768, substance alone
  MIC: 4 µg/mL
K. pneumo JMI 2699; [13]
  MIC Aztreonam + inhibitor: ≤0.062 µg/mL
K. pneumo JMI 2699; [14]
  MIC Ceftazidime + inhibitor: ≤0.25 µg/mL
K. pneumo JMI 2699; [15]
  MIC Meropenem + inhibitor: ≤0.0312 µg/mL
K. pneumo JMI 2699; substance alone, read-out: MIC
  MIC: 4 µg/mL
K.pneumo JMI 4109 [4]; [13]
  MIC Aztreonam + inhibitor: ≤0.062 µg/mL
K.pneumo JMI 4109 [4]; [14]
  MIC Ceftazidime + inhibitor: ≤0.25 µg/mL
K.pneumo JMI 4109 [4]; [15]
  MIC Meropenem + inhibitor: ≤0.0312 µg/mL
E. coli JMI 10767 [5]; [13]
  MIC Aztreonam + inhibitor: ≤0.062 µg/mL
E. coli JMI 10767 [5]; [14]
  MIC Ceftazidime + inhibitor: ≤0.25 µg/mL
K. pneumo JMI 4088 [6]; [13]
  MIC Aztreonam + inhibitor: 1 µg/mL
K. pneumo JMI 4088 [6]; [14]
  MIC Ceftazidime + inhibitor: ≤0.25 µg/mL
K. pneumo JMI 4088 [6]; [15]
  MIC Meropenem + inhibitor: 0.25 µg/mL
E. coli JMI 2665; E. coli JMI 2665 (CMY-2 (Plasmid Cpase)), Aztreonam + inhibitor at 4 µg/mL
  MIC Aztreonam + inhibitor: ≤0.062 µg/mL
E. coli JMI 2665; E. coli JMI 2665 (CMY-2 (Plasmid Cpase)), Ceftazidime + inhibitor at 4 µg/mL
  MIC Ceftazidime + inhibitor: ≤0.25 µg/mL
E. coli JMI 2665; Escherichia coli, JMI2665
  MIC: 2 µg/mL
K. pneumo JMI 2674 [7]; [13]
  MIC Aztreonam + inhibitor: 0.5 µg/mL
K. pneumo JMI 2674 [7]; [14]
  MIC Ceftazidime + inhibitor: ≤0.25 µg/mL
K. pneumo JMI 2674 [7]; [15]
  MIC Meropenem + inhibitor: 0.125 µg/mL
E. coli JMI 2671; E. coli JMI 2671 (VIM-19 (Cpase)), Aztreonam + inhibitor at 4 µg/mL
  MIC Aztreonam + inhibitor: ≤0.062 µg/mL
E. coli JMI 2671; E. coli JMI 2671 (VIM-19 (Cpase)), Ceftazidime + inhibitor at 4 µg/mL
  MIC Ceftazidime + inhibitor: ≤0.25 µg/mL
E. coli JMI 2671; E. coli JMI 2671 (VIM-19 (Cpase)), Meropenem + inhibitor at 4 µg/mL
  MIC Meropenem + inhibitor: ≤0.0312 µg/mL
E. coli JMI 2671; Escherichia coli, JMI2671, E. coli JMI 2671 (VIM-19 (Cpase)), substance alone
  MIC: 2 µg/mL
P. aerug JMI 2686
  MIC: > 16 µg/mL
E. coli JMI 10767 [8]; [15]
  MIC Meropenem + inhibitor: ≤0.0312 µg/mL
E. coli JMI 10767 [8]; Escherichia coli, JMI10767, substance alone
  MIC: 2 µg/mL
K. pneumo JMI 4088 [9]
  MIC: 2 µg/mL
P. aerug JMI 149; [13]
  MIC Aztreonam + inhibitor: >4 µg/mL
P. aerug JMI 149; [14]
  MIC Ceftazidime + inhibitor: 4 µg/mL
P. aerug JMI 149; [15]
  MIC Meropenem + inhibitor: 0.25 µg/mL
P. aerug JMI 149; substance alone, read-out: MIC
  MIC: > 16 µg/mL
K.pneumo JMI 4109 [10]
  MIC: 2 µg/mL
K. pneumo JMI 2673
  MIC: > 16 µg/mL
K. pneumo JMI 2674 [11]
  MIC: > 16 µg/mL
K. pneumo JMI 4106; [13]
  MIC Aztreonam + inhibitor: ≤0.062 µg/mL
K. pneumo JMI 4106; [14]
  MIC Ceftazidime + inhibitor: ≤0.25 µg/mL
K. pneumo JMI 4106; [15]
  MIC Meropenem + inhibitor: ≤0.0312 µg/mL
K. pneumo JMI 4106; substance alone, read-out: MIC
  MIC: 2 µg/mL
E. cloacae JMI 36; [13]
  MIC Aztreonam + inhibitor: >4 µg/mL
E. cloacae JMI 36; [14]
  MIC Ceftazidime + inhibitor: 0.5 µg/mL
E. cloacae JMI 36; [15]
  MIC Meropenem + inhibitor: 0.062 µg/mL
E. cloacae JMI 36; Enterobacter cloacae, JMI36, substance alone, read-out: MIC
  MIC: > 16 µg/mL
E. coli JMI 10768 [12]
  MIC Meropenem + inhibitor: 0.062 µg/mL
